Reference: patent EP0913397B1, “A proces for the synthesis of 1-(4-Arylpiperazine-1-y1)-3-(2-oxypyrrolidin/piperidin-1-yl)propanes as therapeutic agents for hypertension, ischemia, cardiovascular and other adrenergic receptors related disorders” (COUNCIL OF SCIENTIFIC AND INDUSTRIAL RESEARCH, priority 1997, dated 1999)

Key:
[1] = test system: anaesthetized (pentobarbitone sodium 35 mg/kg i.v.) cat; test: Effect on blood pressure and adrenaline vasopressure response in anaesthetized cat (Table 2); type: in vivo
Protocol: Table 2: Effect on blood pressure, heart rate and adrenaline vasopressure response at an anaesthetized (pentobarbitone sodium 35 mg/kg i.v.) cat.
(§1) • (a) Cats (2.6-4.0 kg) of either sex anaesthetized with pentobarbitone sodium ([…] i.v.) and showing basal mean arterial blood pressure below 150 mm (Hg) were categorised as normotensive and above 150 mm Hg as hypertensive. Arterial blood pressure (BP) was recorded from one of the carotid artery through a stathum P23 DC pressure transducer and 7P1 low level DC preamplifier on a Grass Model P7 Polygraph, Signals from 7P 1 preamplifier were used to trigger 7P4 Tachograph preamplifier for recording the heart rate (HR). Right femoral vein and Trachea were cannulated for intravenous injections and artificial ventilation respectively. Control responses to intravenous injection of noradrenaline (2-4 ug); acetyl choline (1-2 ug); histamine (1-2 ug) and isoprenaline (1-2 ug) were taken before and after the administration of test doses of each compounds.

[2] = test system: histamine induced bronchoconstriction; test: Konzett and Rossler preparation
Normotensive cat = test: Effect on blood pressure, heart rate and adrenaline vasopressor response, anaesthetized normotensive cat; type: in vivo; conditions: 10 uMol/kg i.d.
Protocol: (§2) 2. Effect on blood pressure, heart rate and adrenaline vasopressor response of anaesthetized (pentobarbitone sodium 40 & 60 mg/kg i.p. in cat and rat respectively) normotensive & hypertensive rat & cat model preparations.
as §1

[3] = test system: Hypertensive rat model preparation; test: Effect on blood pressure, heart rate and adrenaline vasopressor response, anaesthetized hypertensive rat model preparation; type: in vivo
Protocol: as §2, §1

[4] = test system: Rat aortic ring preparation; test: Rat aortic ring preparation, NE induced contraction
Isolated aortic strip = test: Isolated aortic strip, endothelin induced contraction
[5] = test system: Isolated Guinea pig ileum preparation; test: Isolated Guinea pig ileum preparation, antihistaminic activity; conditions: 0.5-5.0 ug/ml
cat = test: In vivo drug antagonism studies in cat; conditions: 2 uMol dose i.v. in cat
[6] = test system: Langendorff perfused rat heart preparation; test: Cardioprotective activity, Langendorff perfused rat heart, prolonged period of ischemic insult
Protocol: Further, in Langendorff perfused rat heart preparation subjected to even up to 90 min. global ischemia, the compound at 0.001 ug/ml conc. given at the time of reperfusion revived normal rhythmic contraction started within 2 min. (Table 1) and incidence of reperfusion induced arrhythmia were abolished. Table 1: Compound administered at the time reperfusion at the dose of 0.001 ug/ml on prolong period (90min.) of ischemic insult.
The rats were killed by decapitation, heart were rapidly excised and placed in ice-cold HEPES tyrode buffer. Then isolated hearts were perfused retrogradely through coronary arteries using the Langendorff technique. The perfusion buffer consisted (in mM) NaCl 137, KCl 5.4, CaCl2 1.8, MgCl 2 1.0, glucose 11.2 and HEPES 3.0. The buffer (pH 7.4) was continuously gassed with oxygen and maintained at 37°C. Coronary flow rate was maintained at 10 ml/min. The heart contracted spontaneously. The perfused heart was allowed to equilibrate for 30 min. before initiation of any insult protocol. The test compounds were given at the time of reperfusion. Some of the compounds were dissolved in ethanol. Final concentration of ethanol in the perfusion buffer was 0.0001% and had no effect of its own on the parameter used. • (a) For brief period of ischemic insult (Hideo et al. Pathophysiology and pathogenesis of stunned myocardium. J. Clin. Invest., 79, 950-961, 1987). Ischemia was initiated by stopping the flow for 16 min. followed by 30 min. reperfusion period. The durations were decided on the initial pilot experiments leading to 50% recovery of function. • (b) For prolong period of ischemic insult (Becker, L.C. & Ambrosio, G. Myocardial consequences of reperfusion Prog. Cardiovas. Dis., 30, 23-44, 1987). Ischemia was initiated by stopping the flow for […] by 30 min. reperfusion.

[7] = 0.001 ug/ml given at the time of reperfusion, up to 90 min. global ischemia

Structure (SMILES): CCc1ccccc1N1CCN(CCCN2CCCCC2=O)CC1 [Ar=C6H4-2-C2H5, n=2, 1-[4-(Z-ethylphenyll)piperazin-1-yl]-3-[2-oxopiperidin-1-yl]propane]
- B. P. fall % ([1]; 2.0 umol/kg i.v.): 35%
- Dur. ([1]; 2.0 umol/kg i.v.): 55 min
- Adrenaline vasopressure response % inhibition ([1]; 10.0 umol/kg i.v.): R (R=Reversal)
- B. P. fall % ([1]; 10.0 umol/kg i.v.): 20%
- Dur. ([1]; 10.0 umol/kg i.v.): 63 min

Structure (SMILES): O=C1CCCCN1CCCN1CCN(c2cccc(C(F)(F)F)c2)CC1 [Ar=C6H4-3-CF3, n=2, 1-[4-(3-trifluoromethylphenyl)piperazin-1-yl]-3-[2-oxopiperidin-1-yl]propane]
- Dur. ([1]; 10.0 umol/kg i.v.): Tr

Structure (SMILES): CCc1ccc(N2CCN(CCCN3CCCC3=O)CC2)cc1 [Ar=C6H4-4-C2H5, n=1, 1-[4-(4-ethylphenyl)piperazin-1-yl]-3-[2-oxopyrrolidin-1-yl]propane]
- Dur. ([1]; 2.0 umol/kg i.v.): Tr

Structure (SMILES): O=C1CCCN1CCCN1CCN(c2ccc(F)cc2)CC1 [Ar=C6H4-4-F, n=1, 1-[4-(4-fluorophenyl)piperazin-1-yl]-3-[2-oxopyrrolidin-1-yl]propane]
- antihistaminic activity against histamine induced bronchoconstriction [2]: some antihistaminic activity
- Heart rate Pre/post treatment (post) (Normotensive cat; post treatment): 170 beats/min
- Heart rate Pre/post treatment (pre) (Normotensive cat; pre treatment): 200 beats/min
- Heart rate Pre/post treatment (post) ([3]; 5 uMol/kg i.d.): 320 beats/min
- Heart rate Pre/post treatment (post) ([3]; 10 uMol/kg i.d.): 340 beats/min
- Heart rate Pre/post treatment (pre) ([3]; 20 uMol/kg i.d., pre treatment): 310 beats/min
- NE induced contraction [4]: inhibited
- Endothelin induced contraction (Isolated aortic strip): inhibited significantly
- Response to endothelin after washing the preparation (Isolated aortic strip; after washing): relaxation rather than contraction
- antihistaminic activity [5]: significant antihistaminic activity
- reduction of the fall in blood pressure (cat; glibenclamide pretreatment): only partially reduced
- reduction of antihypertensive effect (cat; pretreatment with Dup-753): 33%
- alteration of antihypertensive effect (cat; pretreatment with atropine sulphate): failed to alter
- alteration of antihypertensive effect (cat; pretreatment with mepyramine maleate): failed to alter
- alteration of antihypertensive effect (cat; pretreatment with propranolol): failed to alter
- alteration of antihypertensive effect (cat; pretreatment with yohimbine): failed to alter
- incidence of reperfusion induced arrhythmia [6, 7]: abolished
- time to start of normal rhythmic contraction [6, 7]: ≤ 2 min

Structure (SMILES): COC(=O)C1=C(C)NC(C)=C(C(=O)OC)C1c1ccccc1[N+](=O)[O-] [Nifedipine, reference compound]
- Onset ([6]; 10^-6M, ischemic insult 45 min.): 2.5 min
